Reference: US5840940A, “Linoleoylamide based ceramide derivative and its use in cosmetic preparations for the treatment of dry skin” (Gist-Brocades B.V., priority 1994, dated 1998)
Entries after “also recorded” stand apart in the source; their conditions may differ.

How the values were obtained:
[1] = Solubility in emollients (visual inspection, maximum concentration before the solution turned cloudy); format: physicochemical
Method: Increasing amounts of the compound were added to the solvent and stirred under nitrogen for 30 minutes at 45° C. After cooling to room temperature (22°±2° C.) the solutions were kept in the dark. After 1, 24 and 48 hours the solutions were visually inspected. The maximum concentration was determined before the solution turned cloudy, indicating the presence of insoluble crystals.

[2] = test system: healthy skin; assay: Skin humidity of healthy skin (corneometer CM 820 PC), long-term effects of ceramide IIIA; format: in vivo, female volunteers (human); details: creams with 0.2% and 0.5% ceramide IIIA, twice daily, 28 days, compared to placebo
Method: (§1) The corneometer CM 820 PC (Courage and Khazaka, Cologne, Germany) registers the electrical capacitance of the skin surface, which is a measure of the degree of moisture on the skin's surface. The capacitance is expressed digitally in arbitrary units (a.u.). Three measurements were performed on each test area and the mean was used to define hydration state of the stratum corneum.
(§2) The corneometer comprises a console and its sensor. The sensor is connected to the console by a special plug and coiled cable. The measurement is indicated on the 40×18 mm display screen on the console as a three-place number. The display also fulfils other information functions.
The sensor is rectangular in shape. Its special glass coated active front surface can be moved axially, and has a stroke of at least 3 mm. […]
(§3) The corneometer is completely automatic in operation. In order to carry out a measurement, the measuring head is pressed against the area of skin to be measured. […]
Measurements were carried out at a temperature of 22°±1° C. and a relative humidity of 60±10%. […] Initially untreated skin was measured in all three areas to find baseline values. […]
Measurements were evaluated during the treatment period on day 7, 14 and 28 two hours after the last daily application. The application was ceased on day 28 and further measurements were evaluated on day 30 and 32. […]

[3] = test system: SDS-damaged skin; assay: Skin humidity of SDS-damaged skin (corneometer CM 820 PC); format: in vivo, female volunteers (human); details: creams with 0.2% and 0.5% ceramide IIIA, 14 days, compared to placebo
Method: as §1, §2
The sensor is rectangular in shape. Its special glass coated active front surface can be moved axially, and has a stroke of at least 3 mm. The measuring principle demands that the sensor surface be placed flat on the test object at a constant pressure. In order to ensure this as reproducibly as possible, the front surface of the measuring head has been designed to be very small (7×7 mm). […]
as §3
Measurements were evaluated during the treatment period on day 3, 7 and 14 one hour after the last daily application. […]

[4] = test system: SDS-damaged skin; assay: Trans-epidermal water loss (TEWL) / barrier recovery of SDS-damaged skin (Tewameter); format: in vivo, female volunteers (human)
Method: Measurements of trans-epidermal water loss (TEWL) were performed with the Tewameter (Courage & Khazaka, Cologne, Germany). The Tewameter is a device for measurement of water evaporation on skin surfaces based on the diffusion principle discovered by A. Fick in 1885.
Five female volunteers at the age of 22-43 years with healthy skin were included in the test.
Measurements were carried out at a temperature of 22°±1° C. and a relative humidity of 60±10%. Subjects were accustomed to ambient conditions for 20 min prior to any measurement. The test was carried out on the volar forearms. The skin of the forearms was treated with a 5% aqueous solution of sodium lauryl sulphate (SDS) and an occlusive dressing applied. The dressing was removed 2 h later, and the regions gently washed with water and air-dried. After 30 min the measurements were done. Then the three test products were applied, one area remained untreated. The dose of application was about 2 mg/cm^2. In the following 14 days a home application in the morning and evening took place.
Measurements were evaluated during the treatment period on day 3, 7 and 14 one hour after the last daily application. Use of other cosmetic products was restricted on the test areas throughout the whole study.

[5] = isocetyl alcohol (Eutanol G16) and/or isostearic acid (Emersol)
[6] = isocetyl alcohol (Eutanol G16), stirred 45° C., room temperature (22°±2° C.), 1, 24 and 48 hours

| Solubility [1, 5] | Solubility [1, 6] | Compound | Solubility, in words ([1]; emollient solvents, compared with saturated analogue and ceramide 1) | Moisturizing effect (skin humidity) [2] | Moisturizing effect (skin humidity) [3] | Trans-epidermal water loss ([4]; SDS-damaged skin, 14 days treatment, compared to placebo) | Restoration of the barrier layer ([4]; surfactant (SDS)-pretreated skin, compared to placebo product) |
| --- | --- | --- | --- | --- | --- | --- | --- |
| less than 0.2 % (w/v) | 0.16 % w/v | CCCCCCCCCCCCCCCCCC(=O)N[C@@H](CO)[C@H](O)[C@H](O)CCCCCCCCCCCCCC [Ceramide III, N-stearoylphytosphingosine, reference compound] | – | – | – | – | – |
| ≥ 1 % (w/v) | 5 % w/v | CCCCC/C=C\C/C=C\CCCCCCCC(=O)N[C@@H](CO)[C@H](O)[C@H](O)CCCCCCCCCCCCCC [Ceramide IIIA, N-linoleoylphytosphingosine] | solubilizes much better than its saturated analogue and than ceramide 1 | clear moisture-retaining effect on healthy skin; also recorded: clear moisturizing effect compared to placebo | increase of skin humidity of damaged skin compared to placebo | a reduction of trans-epidermal water loss | high capacity for restoration of the impaired lipid barrier of the skin; also recorded: quicker recovery of the barrier layer of SDS-treated skin than the placebo product |
